Legend:
[1] = MTT cell viability assay on normal mammary epithelial cells; format: cell-based; settings: human, MCF-10A mammary epithelial cells, MCF-10A normal cells, 4 days incubation
Method: A human mammary gland epithelial (MCF-10A) normal cell line was used to perform the viability test. The viability of compounds VIa-k was determined using the MTT assay after 4 days of incubation with MCF-10A cells[26]^,[27].
The MTT assay was used to assess how the synthetic compounds impacted the viability of mammary epithelial cells (MCF-10A)[26]^,[27]. Appendix A. […]
4.2. Biological evaluation
4.2.1. Cytotoxic activity using MTT Assay and evaluation of IC50
MTT assay was carried out to study the effect of compounds on mammary epithelial cells (MCF-10A)26,27. The medium in which cells were propagated contained Dulbecco's modified Eagle's medium (DMEM)/ Ham's F-12 medium (1:1) supplemented with epidermal growth factor (20 ng/mL), hydrocortisone (500 ng/mL), insulin (10 μg/mL), 2 mM glutamine and 10% foetal calf serum. After every 2-3 days, the cells were passaged using trypsin ethylenediamine tetra acetic acid (EDTA). The cells were seeded at a density of 10^4 cells mL-1 in flat-bottomed culture plates containing 96 wells each. […]
(§1) A single compound was designated with four wells followed by incubation of plates for 96h at 37°C. After incubation, medium was removed completely from the plates followed by addition of MTT (0.4 mg/mL in medium) to each well and subsequent incubation of plates for 3h. MTT (along with the medium) was removed and DMSO (150μL) was added to each well of the culture plates, followed by vortexing and subsequent measurement of absorbance (at 540 nm) using microplate reader. […]

[2] = test system: A-549 (epithelial cancer cell line); assay: Antiproliferative MTT assay, A-549; format: cell-based; settings: Homo sapiens, A549; A-549, MTT; read-out: Antiproliferative activity IC50 ± SEM, A-549
Method: (§2) The MTT assay was performed using various cell lines in accordance with previously reported procedures[28]^,[29] to investigate the antiproliferative potential of VIa-k. Refer to Appendix A. […]
(§3) added (in 200 μL medium to yield a final concentration of 0.1% v/v) to the wells of plates. A single compound was designated with four wells followed by incubation of […]
as §1, with “After” for “A single compound was designated with four wells followed by incubation of plates for 96h at 37°C. After”, “reader. The data are shown as percentage inhibition of proliferation in comparison with controls containing 4.2.1.2. Assay for antiproliferative effect” for “reader.”
(§4) The percentage cytotoxicity of compounds was calculated using the following […]
(§5) Where ATC= Absorbance of treated cells and AC= Absorbance of control. […]
(§6) used as positive control in the assay. […]

[3] = test system: MCF-7 (breast cancer cell line); assay: Antiproliferative MTT assay, MCF-7; format: cell-based; settings: Homo sapiens, MCF7; MCF-7, MTT; read-out: Antiproliferative activity IC50 ± SEM, MCF-7
Method: as §2, §3
as §1, with “After” for “A single compound was designated with four wells followed by incubation of plates for 96h at 37°C. After”, “reader. The data are shown as percentage inhibition of proliferation in comparison with controls containing 4.2.1.2. Assay for antiproliferative effect” for “reader.”
as §4, §5, §6

[4] = test system: Panc-1 (pancreatic cancer cell line); assay: Antiproliferative MTT assay, Panc-1; format: cell-based; settings: Homo sapiens; Panc-1, MTT; read-out: Antiproliferative activity IC50 ± SEM, Panc-1
Method: as §2, §3
as §1, with “After” for “A single compound was designated with four wells followed by incubation of plates for 96h at 37°C. After”, “reader. The data are shown as percentage inhibition of proliferation in comparison with controls containing 4.2.1.2. Assay for antiproliferative effect” for “reader.”
as §4, §5, §6

[5] = test system: HT-29 (colon cancer cell line); assay: Antiproliferative MTT assay, HT-29; format: cell-based; settings: Homo sapiens; HT-29, MTT; read-out: Antiproliferative activity IC50 ± SEM, HT-29
Method: as §2, §3
as §1, with “After” for “A single compound was designated with four wells followed by incubation of plates for 96h at 37°C. After”, “reader. The data are shown as percentage inhibition of proliferation in comparison with controls containing 4.2.1.2. Assay for antiproliferative effect” for “reader.”
as §4, §5, §6

[6] = test system: four human cancer cell lines (Panc-1, MCF-7, HT-29, A-549); assay: Antiproliferative MTT assay, average (GI50) over the four cancer cell lines; format: cell-based; settings: for GI50: Homo sapiens, average of IC50 versus A-549, MCF-7, Panc-1, HT-29
Method: The average (GI50) versus the four cancer cell lines was chosen for ease of manipulation.
as §2, §3
as §1, with “After” for “A single compound was designated with four wells followed by incubation of plates for 96h at 37°C. After”, “reader. The data are shown as percentage inhibition of proliferation in comparison with controls containing 4.2.1.2. Assay for antiproliferative effect” for “reader.”
as §4, §5, §6

EGFR = molecular target: T1, EGFR (Homo sapiens, UniProt P00533); assay: EGFR-TK inhibitory assay; format: biochemical; settings: for IC50: EGFR-TK assay, read-out: EGFR inhibition IC50 ± SEM
T1 construct: cytoplasmic domain (EGFR -CD, amino acids 645–1186); His6 (N); made in house; host or cells: Sf-9 insect cells (baculovirus, pBlueBacHis2B / pFASTBacHTc)
T1 sequence (P00533 669-1210): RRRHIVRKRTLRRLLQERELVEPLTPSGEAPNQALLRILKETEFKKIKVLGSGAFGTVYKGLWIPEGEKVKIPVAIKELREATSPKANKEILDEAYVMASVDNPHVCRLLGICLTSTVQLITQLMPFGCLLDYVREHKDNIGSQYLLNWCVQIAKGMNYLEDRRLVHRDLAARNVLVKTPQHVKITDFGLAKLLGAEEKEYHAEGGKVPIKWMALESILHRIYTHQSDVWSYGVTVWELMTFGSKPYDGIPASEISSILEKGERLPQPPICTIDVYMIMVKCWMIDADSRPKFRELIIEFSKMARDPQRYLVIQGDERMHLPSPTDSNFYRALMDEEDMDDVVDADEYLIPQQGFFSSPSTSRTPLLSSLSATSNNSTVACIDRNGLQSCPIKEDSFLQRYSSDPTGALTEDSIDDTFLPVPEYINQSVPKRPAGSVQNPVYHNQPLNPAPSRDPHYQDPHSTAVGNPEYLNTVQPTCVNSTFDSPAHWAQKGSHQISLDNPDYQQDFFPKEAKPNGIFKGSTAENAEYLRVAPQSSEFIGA
Method: 4.2.1.3. EGFR inhibitory assay
EGFR-TK assay was performed to evaluate the inhibitory potency of the tested compounds against EGFR30. Baculoviral expression vectors including pBlueBacHis2B […]
sequence comprised a sequence that encoded (His) 6. Sf-9 cells were infected for 72h for protein expression. The pellets of Sf-9 cells were solubilized in a buffer containing sodium vanadate (100 µM), aprotinin (10 µg/mL), triton (1%), HEPES buffer (50mM), ammonium molybdate (10 µM), benzamidine HCl (16 µg/mL), NaCl (10 mM), leupeptin (10 µg/mL) and pepstatin (10 µg/mL) at 0°C for 20 min at pH 7.4, followed by centrifugation for 20 min. To eliminate the non-specifically bound material, a Ni-NTA super flow packed column was used to pass through and wash the crude extract supernatant first with 10 mM and then with 100 mM imidazole. […]
NaCl (50 mM), HEPES (20 mM), glycerol (10%) and 1 µg/mL each of aprotinin, leupeptin and pepstatin for 120 min. The purification was performed either at 4 °C or on ice. To record autophosphorylation level, EGFR kinase assay was carried out on the basis of DELFIA/Time-Resolved Fluorometry. The compounds were first dissolved in DMSO […]
pH 7.4. Each compound (10 µL) was incubated with recombinant enzyme (10 µL, 5 ng for EGFR, 1:80 dilution in 100 mM HEPES) for 10 min at 25 °C, subsequent to the addition of 5X buffer (10 µL, containing 2 mM MnCl2, 100 µM Na3VO4, 20 mM HEPES and 1 mM DTT) and ATP-MgCl2 (20 µL, containing 0.1 mM ATP and 50 mM MgCl 2) and incubation for 1h. The negative and positive controls were included in each plate by the incuba tion of enzyme either with or without ATP -MgCl2. The liquid was removed after incubation and the plates were washed thrice using wash buffer. Europium -tagged antiphosphotyrosine antibody (75 µL, 400 ng) was added to each well followed by incubation of 1h a nd then washing of the plates using buffer. The enhancement solution was added to each well and the signal was recorded at excitation and emission […]
The autophosphorylation percentage inhibition by compounds was calculated using the following equation: […]
Using the curves of percentage inhibition of eight concentrations of each compound, IC 50

BRAF^V600E = molecular target: T2, BRAF^V600E (Mus musculus, UniProt P28028, V585E); assay: BRAF V600E kinase assay; format: biochemical; settings: read-out: BRAF^V600E inhibition IC50 ± SEM
T2 construct: Mouse full-length GST-tagged BRAFV600E; GST; purchased Invitrogen PV3849
T2 sequence (P28028 whole entry V585E): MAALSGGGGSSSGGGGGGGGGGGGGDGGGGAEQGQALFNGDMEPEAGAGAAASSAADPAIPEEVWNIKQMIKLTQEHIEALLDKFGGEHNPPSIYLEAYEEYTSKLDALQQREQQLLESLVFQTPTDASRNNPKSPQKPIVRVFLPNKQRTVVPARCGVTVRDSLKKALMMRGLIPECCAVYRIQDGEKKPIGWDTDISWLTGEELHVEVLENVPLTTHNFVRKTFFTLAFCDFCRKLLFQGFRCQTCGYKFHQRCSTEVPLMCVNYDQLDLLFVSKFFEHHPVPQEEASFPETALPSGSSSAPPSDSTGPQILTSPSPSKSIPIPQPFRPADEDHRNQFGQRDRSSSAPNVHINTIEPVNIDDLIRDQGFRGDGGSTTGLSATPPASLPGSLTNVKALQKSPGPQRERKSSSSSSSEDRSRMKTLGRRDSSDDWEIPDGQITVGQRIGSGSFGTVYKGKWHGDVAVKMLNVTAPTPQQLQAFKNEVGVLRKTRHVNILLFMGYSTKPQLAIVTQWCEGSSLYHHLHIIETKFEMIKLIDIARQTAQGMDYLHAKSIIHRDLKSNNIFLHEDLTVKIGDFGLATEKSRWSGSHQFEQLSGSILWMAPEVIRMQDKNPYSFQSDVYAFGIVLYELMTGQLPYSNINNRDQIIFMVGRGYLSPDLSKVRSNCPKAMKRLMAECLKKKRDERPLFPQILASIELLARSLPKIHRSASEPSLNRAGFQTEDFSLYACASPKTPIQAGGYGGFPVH
Method: An in vitro study was conducted to evaluate the anti-BRAF^V600E of VIc, VIf, VIg, VIi, and VIk[31]. […] An in vitro study[31] was conducted to evaluate the anti-BRAF^V600E of VIc, VIf, VIg, VIi, and Vik. See Appendix A.
4.2.1.4. BRAF kinase assay
V600E mutant BRAF kinase assay was performed to investigate the activity of the most […]
Mouse full-length GST-tagged BRAFV600E (7.5 ng, Invitrogen, PV3849) was pre-incubated with drug (1 µL) and assay dilution buffer (4 µL) for 60 min at 25 °C. In assay dilution buffer, a solution (5 µL) containing MgCl 2 (30 mM), ATP (200 µM), recombinant human full length (200 ng) […] N-terminal His-tagged MEK1 (Invitrogen) was added to start the assay, subsequent to incubation for 25 min at 25 °C. The assay was stopped using 5X protein denaturing buffer (LDS) solution (5 µL).
To further denature the protein, heat (70° C) was applied for 5 min.
NuPage gel plates (Invitrogen) were used to carry out electrophoresis (at 200 V). 10 µL of each reaction was loaded into the precast plates and electrophoresis was allowed to proceed. After completion of electrophoresis, the front part of the precast gel plate (holding hot ATP) was cut and afterw ards cast-off. The dried gel was developed using a […]
that containing no inhibitor served as positive control. […]

Human CDK2/A2 = Human CDK2/A2 (Homo sapiens, UniProt P24941); assay: CDK2 inhibitory assay
Method: Protein Kinase Assays. Human CDK2/A2 was purchased from New England Biolabs IC50 values for CDK2/A were determined according to the supplier’s instructions

Row | SMILES | viability at 4 days, 50 µM [1] | IC50 [2] | IC50 [3] | IC50 [4] | IC50 [5] | GI50 [6] | melting point | IC50 (EGFR) | EGFR potency relative to erlotinib (lower) (EGFR; ratio of IC50 values) | IC50 (BRAF^V600E) | IC50 (Human CDK2/A2) | GI50 potency relative to VIi (less potent) ([6]; ratio of GI50 values)
1 | Cc1ccc(C(N)=NOC(=O)/C=C/C=C/c2ccc3c(c2)OCO3)cc1 [VIe, N'-{[(2E,4E)-5-(2H-1,3-Benzodioxol-5-yl)penta-2,4-dienoyl]oxy}-4-methylbenzene-1-carboximidamide] | 89% | 69 ± 7 nM | 73 ± 7 nM | 75 ± 7 nM | 75 ± 7 nM | 73 nM | 185 to 188 °C | – | – | – | – | –
2 | NC(=NOC(=O)/C=C/C=C/c1ccc2c(c1)OCO2)c1cccc(Cl)c1 [VIg, N'-{[(2E,4E)-5-(2H-1,3-benzodioxol-5-yl)penta-2,4-dienoyl]oxy}-3-chlorobenzene-1-carboximidamide] | 87% | 42 ± 5 nM | 47 ± 5 nM | 49 ± 5 nM | 49 ± 5 nM | 47 nM | 163 to 165 °C | 96 ± 6 nM | 1.2 fold | 63 ± 6 nM | 20 ± 2 nM | –
3 | NC(=NOC(=O)/C=C/C=C/c1ccc2c(c1)OCO2)c1cccc(Br)c1 [VIh, N'-{[(2E,4E)-5-(2H-1,3-benzodioxol-5-yl)penta-2,4-dienoyl]oxy}-3-bromobenzene-1-carboximidamide] | 91% | 61 ± 6 nM | 64 ± 6 nM | 69 ± 6 nM | 67 ± 6 nM | 65 nM | 141 to 143 °C | – | – | – | – | –
4 | COc1ccc(C(N)=NOC(=O)/C=C/C=C/c2ccc3c(c2)OCO3)cc1OC [VIi, N'-{[(2E,4E)-5-(2H-1,3-benzodioxol-5-yl)penta-2,4-dienoyl]oxy}-3,4-dimethoxybenzene-1-carboximidamide] | 89% | 36 ± 4 nM | 39 ± 3 nM | 40 ± 4 nM | 40 ± 4 nM | 39 nM | 147 to 149 °C | 120 ± 10 nM | – | 72 ± 7 nM | 17 ± 2 nM | –
5 | N/C(=N/OC(=O)/C=C/C=C/c1ccc2c(c1)OCO2)c1cccc2ccccc12 [VIj, N'-{[(2E,4E)-5-(2H-1,3-benzodioxol-5-yl)penta-2,4-dienoyl]oxy} naphthalene-1-carboximidamide] | 85% | 78 ± 8 nM | 81 ± 8 nM | 84 ± 8 nM | 88 ± 9 nM | 83 nM | – | – | – | – | – | 2 fold

Source: article PMC9721426, “Novel piperine-carboximidamide hybrids: design, synthesis, and antiproliferative activity via a multi-targeted inhibitory pathway” (Journal of Enzyme Inhibition and Medicinal Chemistry, 2022)
